The values that follow are results of earlier work, collected in patent publication US20250092340A1, “METHOD FOR INDUSTRIALLY PRODUCING MOGROSIDE, FRUCTUS MOMORDICAE SUGAR/WINE AND MANNITOL FROM FRESH FRUCTUS MOMORDICAE” (priority 2022, published 2025).

The conditions of this data set: background statement.

In the case of `C[C@H](CC[C@@H](O[C@@H]1O[C@H](CO)[C@@H](O)[C@H](O)[C@H]1O[C@@H]1O[C@H](CO)[C@@H](O)[C@H](O)[C@H]1O)C(C)(C)O)[C@H]1CC[C@@]2(C)[C@H]3CC=C4[C@@H](CC[C@H](O[C@@H]5O[C@H](CO[C@@H]6O[C@H](CO)[C@@H](O)[C@H](O)[C@H]6O)[C@@H](O)[C@H](O)[C@H]5O)C4(C)C)[C@]3(C)[C@H](O)C[C@]12C` [mogroside IV], the “sweetness relative to sucrose” value was 126 folds of that of sucrose.

For `C[C@H](CC[C@@H](O[C@@H]1O[C@H](CO[C@@H]2O[C@H](CO)[C@@H](O)[C@H](O)[C@H]2O)[C@@H](O)[C@H](O)[C@H]1O[C@@H]1O[C@H](CO)[C@@H](O)[C@H](O)[C@H]1O)C(C)(C)O)[C@H]1CC[C@@]2(C)[C@@H]3CC=C4[C@@H](CC[C@H](O[C@@H]5O[C@H](CO[C@@H]6O[C@H](CO)[C@@H](O)[C@H](O)[C@H]6O)[C@@H](O)[C@H](O)[C@H]5O)C4(C)C)[C@]3(C)[C@H](O)C[C@]12C` [mogroside V], the “sweetness relative to sucrose” value is 256-344 folds of that of sucrose.
